# Laboratory results as given in patent US12636300B2, “Methods of treatment and maintenance therapy for bladder cancer using gemcitabine” (Janssen Biotech, Inc., priority 2017, dated 2026).
# Tests used:
# [1] = Safety and tolerability of 4 consecutive 21 day TAR-200 dosing cycles; type: in vivo, human; details: four consecutive 3-week delivery periods; patients unfit for radical cystectomy
# Protocol: (§1) Subjects receive the first TAR-200 transurethrally via the TARIS Inserter on Study Day 0. On Study Day 21 (±3 days), this first TAR-200 will be removed via flexible or rigid cystoscopy, and then the second TAR-200 will be placed. TAR-200 is an intravesicular device that contains 225 mg of gemcitabine. This removal/replacement procedure is repeated for a third and fourth dosing cycle in the induction period on Study Days 42 (±3 days), and 63 (±3 days), respectively. The fourth TAR-200 will be removed on Study Day 84 (±3 days), and the 3-month response assessment will be conducted.
# The primary endpoint is assessment of safety and tolerability of 4 consecutive 21 day TAR-200 dosing cycles.
# Twenty three patients were enrolled in the study as described in Example 1. The age range among the enrolled patients is from 50 to 98. The mean age is 82.6, and the median age is 84. The patients were treated and assessed according to the methods described therein. Patients that accomplished a complete response, partial response or stable disease after the induction phase received the maintenance phase treatment.
# [2] = system: muscle-invasive urothelial cell carcinoma of the bladder; test: Clinical response assessment after TAR-200 induction (cystoscopy, CT/MRI/PET, biopsy); type: in vivo, human
# Protocol: as §1
# During the maintenance period, a 21-day dosing cycle occurs every quarter (3 months) starting at approximately 6 months. Subjects may continue to undergo quarterly dosing cycles for 3 dosing cycles.
# All subjects are assessed for clinical response every 3 months by cystoscopy, pelvic computed tomography (CT)/magnetic resonance imaging (MRI)/positron emission tomography (PET), and biopsy (at 12 weeks only, unless clinically indicated). Subjects are also assessed for symptom control at 3, 6, 9, and 12 weeks, and approximately every month during the maintenance period.
# The secondary endpoints are proportion of subjects with clinical complete response (cCR), clinical partial response (cPR), stable disease (SD), and progression on the basis of visual lesions on cystoscopy, pelvic CT/MRI/PET, and biopsy. For purposes of this study, cCR means no evidence of the disease in the bladder or notes. cPR means in the previously N0 subject, a down staging in bladder tumor burden to <pT2 disease and no evidence of nodal disease burden or in the N1-N3 subject: a down staging in bladder tumor burden to <pT2 disease and no evidence of an increase in the size of nodal disease burden or no evidence of down staging in bladder tumor burden and a decrease in the size of nodal disease burden. Stable disease means persistent MIBC without evidence of metastasis. Progression means M1 disease or significant increase in burden of disease in bladder based upon cystoscopy and Ct/MRI/PET. […]
smiles,measurement,setting,value
Nc1ccn([C@@H]2O[C@H](CO)[C@@H](O)C2(F)F)c(=O)n1 [gemcitabine],tolerability of four consecutive doses (induction),[1],well tolerate
same,duration of durable effect after the induction therapy,[2]; after the induction therapy,at least 100 days
same,objective response rate (ORR),"[2]; per protocol basis, end of induction period (Day 84)",80%
same,complete response rate,"[2]; per protocol basis, end of induction period (Day 84), ten patients who completed four cycles",50%
